# Assay results taken from US20060160869A1, “Ubiquitin ligase inhibitors” (Rigel Pharmaceuticals, Inc., priority 2005, published 2006).
# Assays:
# HCT116 cells = assay: PAD anti-proliferation assay, HCT; format: cell-based; settings: Homo sapiens, HCT-116, 48 hours
# Protocol: A549 (ATCC# CCL 185), HeLa (ATCC# CCL 2), HCT116 (ATCC# CCL-247), and H 1299 (ATCC# CRL-5803) cells were maintained in T175 flasks following the ATCC recommended media and handling procedures. Flasks reaching approximately 70% confluency were trypsinized and resuspended in RPMI media (Cell Gro catalog number 10 040 CM) modified to contain 5% FBS, 100 ug/mlPen/Strep (Cell Gro catalog number 30 002 CL), and 0.3 mg/ml L Glutamine (Cell Gro catalog number 25 003 CL). A 20,000 cells/ml solution was made for plating. Cells were plated in black Packard 96 well plates by placing 100 μl per well (2,000 cells per well).
# Compounds and additional media were added 24′ hours after cell plating. A compound master plate was created with concentrations 500 times greater than the final concentration added to the cells. All compound testing was done in duplicate using 3 fold dilutions starting with 10 mM. All outside wells (and 4 internal wells) were DMSO controls. Taxol and at least one additional control were run on all plates. Three microliters of the compound master plate were added to deep well blocks containing 750 μl of RPMI media. One hundred microliters were transferred from the compound/media deep well blocks to the plated cells resulting in a 500 fold dilution of the compounds. Cells were grown at 37° C., 5% CO2 for 48 hours.
# Cells to be analyzed by photography were fixed and stained. One hundred microliters of media were removed and 100 μl of 2% paraformaldehyde was added to each well. Plates were left on the benchtop for 45 minutes. A staining solution containing 1.55 μl of 1 mg/ml DAPI added to 18.75 ml PBS was warmed for 15 minutes at 37° C. The cells were aspirated prior to washing with 100 μl of PBS. Seventy microliters of PBS were aspirated and 170 μl of the DAPI solution were added to each well of fixed cells. Plates were left at room temperature for one hour then aspirated and washed twice with 100 μl of PBS. The stained cells were left at 4° C. for a minimum of 16 hours before photographic analysis with Array Scan II (Cellomics). Analysis of the photographic images to determine numbers of live cells (proliferation), apoptotic cells and dead cells, were according to the methods described in U.S. Provisional Patent Application Ser. No. 60/406,714, which incorporated herein in its entirety.
# DLD-1 cells = assay: PAD anti-proliferation assay, DLD-1; format: cell-based; settings: Homo sapiens, 48 hours
# [1] = test system: GADD45 promoter (DNA damage response reporter); assay: H1299 GADD45 reporter system; format: cell-based; settings: human; p53 −ve cell type; maximal fold induction over DMSO control; read-out: Fold Induction, H1299GADD45
# Source text: (§1) Stable lines of U2OS (osteosarcoma; Wild-type p53 positive), HCT116 (colorectal carcinoma; Wild-type p53 positive) and H1299 (lung non-small cell carcinoma; p53 null) carrying p53-dependent transcriptional regulatory element linked to a Luciferase reporter gene and H1299 carrying a 5′-regulatory region of GADD45 linked to Luciferase were used.
# (§2) Day 1: Cells were re-plated into 96-well plates at suitable densities to make 50-60% confluence on Day 2. The plating densities are as follows: 7.5×10^3 cells/well (or 2.5×10^4 cells/cm^2) for U2OS; 1.5×10^4 cells/well (or 5.0×10^4 cells/cm^2) for HCT116; and 1.0×10^4 cells/well (or 3.3×10^4 cells/cm^2) for H1299.
# (§3) Day 2: The compounds or control drugs were diluted in dimethyl sulfoxide (DMSO) and added to the wells to create 6-points/2-fold serial dilution (20, 10, 5, 2.5, 1.25, 0.625 and 0 μM) for each compound. The DMSO concentration was adjusted to 0.2% in all wells.
# (§4) Day 3: Twenty to 24 hours after compound addition, cells were twice washed with PBS and lysed with Glo-lysis buffer (100 μl/well, Promega; Cat#E2661). Plates were subjected to gentle agitation on a table-top shaker for 5 minutes at room temperature. Fifty μl of lysate was transferred to an assay plate to test for luciferase activity and mixed with 2× assay buffer (Promega; Cat# E1483). The reaction mixture was left at room temperature for 2 minutes and then luminescence was measure by a luminometer (Victor™, 1420 Multilabel Counter, Wallac).
# (§5) Data analysis was done on Excel software (Microsoft). Values in Table 4 represent maximal fold induction over negative control (DMSO only) and are the mean of at least duplicate experiments.
# H1299 GADD45 Reporter System is a system in which GADD45 is induced in p53-null cells in response to DNA damage. This cell line expresses the 5′-regulatory region of the GADD45 gene. This assay provides a way to rule out the possibility of DNA damage due to the compounds.
# E2 (Ubch5c) = E2 (Ubch5c) (Homo sapiens, UniProt P61077); assay: E2 ligase assay, E2 auto-ubiquitination; format: biochemical; settings: Table 2
# E2 (Ubch5c), sequence (P61077 whole entry): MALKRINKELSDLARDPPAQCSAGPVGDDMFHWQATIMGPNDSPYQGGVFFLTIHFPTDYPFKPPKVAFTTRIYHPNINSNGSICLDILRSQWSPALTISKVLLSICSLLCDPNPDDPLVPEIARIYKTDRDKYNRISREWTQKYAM
# Protocol: E2 (Ubch5c) auto-ubiquitination was measured as described in U.S. patent application Ser. No. 09/826,312 (Publication No. US-2002-0042083-A1), which is incorporated herein in its entirety. Details of the protocol are described below. Activity in the presence of the test compound was determined relative to a parallel control in which only DMSO was added. The IC50 values were typically determined using 6 or 8 different concentrations of compound, although as few as 2 concentrations may be used to approximate IC50 values.
# Corning 96-well plates (Corning 3650) were blocked with 100 μl of Blocking Buffer for 1 hour at room temperature. The plates were washed for 4 times with 225 μl of 1×PBS and 80 μl of the reaction buffer were added that contained 100 ng/well of Flag-ubiquitin. To this, 10 μl of the test compound diluted in DMSO were added. After the test compound was added, 10 μl of E1 (human) and E2 (Ubch5c) in Protein Buffer were added to obtain a final concentration of 5 ng/well of E1 and 20 ng/well of E2. The plates were shaken for 10 minutes and incubated at room temperature for 1 hour. After incubation, the reaction was stopped by adding 25 μl of loading buffer (non-reducing) per well and the plates were heated at 95° C. for 5 minutes. An aliquot of each well was run on a 10% NugePage Gel and analyzed by Western Blot using the antibody mix and Lumino substrate described below. The luminescence was measured using a BMG luminescence microplate reader.
# [2] = test system: p53 reporter system in p53 null H1299 cell line; assay: p53-dependent transcription reporter assay, H1299RE; format: cell-based; settings: p53 −ve cell type; maximal fold induction over DMSO control
# Source text: as §1, §2, §3, §4, §5
# H1299RE is p53 null […] cell line containing p53 reporter system. Numbers indicate the selectivity of the compound with smaller number being higher selectivity.
# E1 and E2 (UBCH5a) = E1 and E2 (UBCH5a) (Homo sapiens, UniProt P22314+P51668); assay: E1/E2 plate enzyme counter assay; format: biochemical; settings: Table 3, counter assay
# Source text: E1/E2 is E1 and E2 (UBCH5a) enzyme counter assay.
SMILES,IC50 (HCT116 cells),IC50 (DLD-1 cells),IC50 (E2 (Ubch5c)),"Fold Induction of p53 activity, H1299RE [2]",E1/E2 plate μM (E1 and E2 (UBCH5a)),fold induction [1]
COc1cccc(CN(Cc2ccc(C(=O)N3CCNCC3)cc2)c2nc(-c3ccc(Br)cc3)cs2)c1OC [compound 353],1 to 20 µM,,≥ 20 µM,c (c means 1.5 or less),,≤ 1.5
O=C(c1ccc(CN(CCOc2ccccc2)c2nc(-c3ccc(Cl)c(Cl)c3)cs2)cc1)N1CCNCC1 [compound 360],1 to 20 µM,1 to 20 µM,≥ 20 µM,c (c means 1.5 or less),+ (+ means 20 μM or greater),≤ 1.5

# The next lines start with results.
IC50 (HCT116 cells),IC50 (DLD-1 cells),IC50 (E2 (Ubch5c)),"Fold Induction of p53 activity, H1299RE [2]",E1/E2 plate μM (E1 and E2 (UBCH5a)),SMILES,fold induction [1]
1 to 20 µM,1 to 20 µM,,,,O=C(c1ccc(CN(Cc2cccc(OC(F)(F)F)c2)c2nc(-c3ccccc3)cs2)cc1)N1CCNCC1 [compound 275],
1 to 20 µM,1 to 20 µM,,,,"O=C(c1ccc(CN(Cc2cccc(OC(F)(F)F)c2)c2nc(-c3ccc4ccccc4c3)cs2)cc1)N1CCNCC1 [compound 282, 4-(2-naphthyl)-N-[4-(piperazin-1-ylcarbonyl)benzyl]-N-[3-(trifluoromethoxy)benzyl]-1,3-thiazol-2-amine]",
1 to 20 µM,,≥ 20 µM,c (c means 1.5 or less),,COc1cccc(-c2csc(N(Cc3ccc(C(=O)N4CCNCC4)cc3)Cc3cccc(OC(F)(F)F)c3)n2)c1 [compound 351],≤ 1.5
,,≥ 20 µM,c (c means 1.5 or less),,COc1cccc(-c2csc(N(CCOc3ccccc3)Cc3ccc(C(=O)N4CCNCC4)cc3)n2)c1 [compound 352],≤ 1.5
